The source of these data is PubChem BioAssay (NCI).

Holding throughout (test): DTP human tumour cell line panel, 48 h
The subject of test [1] is HL-60(TB) leukemia.
The subject of test [2] is PC-3 prostate.
Test [3] relates to HCT-15 colon.
Test [4] relates to SN12C renal.
The test system of test [5] is SR leukemia.
The test system of test [6] is HS 578T breast.
In test [7] the test system is OVCAR-4 ovarian.
For test [8], the system named is RXF 393 renal.
The test system of test [9] is CCRF-CEM leukemia.
The subject of test [10] is BT-549 breast.
Test [11] relates to NCI/ADR-RES ovarian.
The subject of test [12] is SF-539 CNS.
Test [13] has as its system LOX IMVI melanoma.
Test [14] concerns MDA-MB-435.
Test [15] has as its system CAKI-1 renal.
Test [16] concerns TK-10 renal.
Test [17] relates to NCI-H522 lung.
Test [18] has as its system MALME-3M melanoma.

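Dose response: 5 concentrations. Exposure: 48 h. Format: 96-well plates. Endpoint: linear interpolation; highest concentration if not reached. TGI is the concentration that stops growth completely.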

For `C/C(=C/CC[C@](C)(OC1OC(CO)C(O)C(O)C1O)[C@H]1CC[C@]2(C)[C@@H]1CC[C@@H]1[C@@]3(C)CC[C@H](O)C(C)(C)[C@@H]3C[C@H](O)[C@]12CO)CO` (some centres undefined), the TGI in test [1], in test [2], in test [3], in [4], in test [5] and in test [6] was more than 100 µM each time. In addition, the total growth inhibition concentration (TGI) in test [7], in test [8], in [9], in test [10], in test [11] and in test [12] was more than 100 µM each time. In addition, the TGI in test [13], in [14], in test [15], in test [16], in [17] and in [18] was more than 100 µM in each case.

Take `Cc1cc(C)c(/C=C2\C(=O)Nc3ccccc32)[nH]1`: the TGI in test [1] is more than 34.1 µM; in [2], more than 100 µM; in [3] it was more than 100 µM; in test [4], more than 100 µM; in test [5] it was more than 100 µM; in test [6], more than 100 µM. Also, the total growth inhibition concentration (TGI) in [7], in test [8], in [9], in [10], in [11] and in test [12] was more than 100 µM throughout. Moreover, the TGI in [13], in test [14], in test [15], in test [16], in test [17] and in test [18] was more than 100 µM throughout.

On to `FC(F)(F)c1ccc2c(-c3cc[nH]c3)ccnc2c1`, for which the TGI is 42.2 µM in test [1]; more than 100 µM in test [2]; more than 100 µM in [3]; more than 100 µM in [4]; 84.9 µM in test [5]; 56.4 µM in test [6]. The total growth inhibition concentration (TGI) is more than 100 µM in test [7]; 46.2 µM in test [8]; more than 100 µM in test [9]; 68.9 µM in [10]; more than 100 µM in test [11]; more than 100 µM in test [12]. For the same compound, the TGI was 48.9 µM in test [13]; more than 100 µM in test [14]; 94 µM in [15]; 70.1 µM in test [16]; 94.9 µM in [17]; 50.4 µM in test [18].
